Results from ChEMBL document CHEMBL3885861, “Open TG-GATES”.

Species on record: Rattus norvegicus
Assay: Open TG-GATES - Regimen: Single
Type: toxicity, organism-based, Sprague-Dawley
Set-up: regimen Single, gender Male, age 6 weeks
Conditions: in vivo, iv, route intravenous injection; for K / LDH / Na / PL / RALB / TBIL / TC / TG / TP / gamma-GTP / A/G / ALP / ALT / AST / BUN / CRE / Ca / Cl / DBIL / GLC / IP: tissue Plasma; for APTT / Bas / Eos / Fbg / Hb / Ht / Lym / MCH / MCHC / MCV / Mono / Neu / PT / Plat / RBC / Ret / WBC: tissue Blood; for KIDNEY_L / KIDNEY_R / KIDNEY_TOTAL: tissue Kidney; for LIVER: tissue Liver
[1] = 3 mg/kg, 3 h, dose level Middle
[2] = 3 mg/kg, 6 h, dose level Middle
[3] = 3 mg/kg, 9 h, dose level Middle
[4] = 3 mg/kg, 24 h, dose level Middle

What does the source list for `C[C@@H]1C[C@@H]([C@H](O)CC2CC(=O)NC(=O)C2)C(=O)[C@@H](C)C1` [CYCLOHEXIMIDE]?
K (1 mg/kg, 24 h, dose level Low): 4.4 meq/L; LDH (1 mg/kg, 24 h, dose level Low): 149.2 IU/L; Na (1 mg/kg, 24 h, dose level Low): 139.8 meq/L; PL (1 mg/kg, 24 h, dose level Low): 110.4 mg/dL; RALB (1 mg/kg, 24 h, dose level Low): 2.6 g/dL; TBIL (1 mg/kg, 24 h, dose level Low): 0.028 mg/dL; TC (1 mg/kg, 24 h, dose level Low): 51.4 mg/dL; TG (1 mg/kg, 24 h, dose level Low): 169.6 mg/dL; TP (1 mg/kg, 24 h, dose level Low): 4.6 g/dL; gamma-GTP (1 mg/kg, 24 h, dose level Low): 1.6 IU/L; TERMINAL_BW [1]: 221.6 g; APTT [1]: 22.4 s; Bas [1]: 0%; Eos [1]: 0.6%; Fbg [1]: 296.6 mg/dL; Hb [1]: 13.7 g/dL; Ht [1]: 41.1%; Lym [1]: 73.2%; MCH [1]: 21.6 pg; MCHC [1]: 33.4%; MCV [1]: 64.6 fL; Mono [1]: 0.8%; Neu [1]: 24.8%; PT [1]: 17.4 s; Plat [1]: 132.2 x10_4/uL; RBC [1]: 636.8 x10_4/ul; Ret [1]: 9.2%; WBC [1]: 217.3 x10_2/uL; KIDNEY_L [1]: 1 g; KIDNEY_R [1]: 1 g; KIDNEY_TOTAL [1]: 2 g; LIVER [1]: 9.6 g; A/G [1]: 1.3; ALP [1]: 1376.2 IU/L; ALT [1]: 58 IU/L; AST [1]: 140.8 IU/L; BUN [1]: 32.6 mg/dL; CRE [1]: 0.1 mg/dL; Ca [1]: 9.8 mg/dL; Cl [1]: 109.4 meq/L; DBIL [1]: 0.004 mg/dL; GLC [1]: 170.4 mg/dL; IP [1]: 9.8 mg/dL; K [1]: 4.7 meq/L; LDH [1]: 364.6 IU/L; Na [1]: 142.2 meq/L; PL [1]: 80 mg/dL; RALB [1]: 2.8 g/dL; TBIL [1]: 0.018 mg/dL; TC [1]: 59.4 mg/dL; TG [1]: 52.4 mg/dL; TP [1]: 5.1 g/dL; gamma-GTP [1]: 2 IU/L; TERMINAL_BW [2]: 221.4 g; APTT [2]: 25.3 s; Bas [2]: 0%; Eos [2]: 0.4%; Fbg [2]: 276 mg/dL; Hb [2]: 14.1 g/dL; Ht [2]: 42.1%; Lym [2]: 60.4%; MCH [2]: 21.2 pg; MCHC [2]: 33.6%; MCV [2]: 63.1 fL; Mono [2]: 1%; Neu [2]: 38%; PT [2]: 21.1 s; Plat [2]: 123.7 x10_4/uL; RBC [2]: 668 x10_4/ul; Ret [2]: 8.3%; WBC [2]: 191.1 x10_2/uL; KIDNEY_L [2]: 1 g; KIDNEY_R [2]: 1 g; KIDNEY_TOTAL [2]: 2 g; LIVER [2]: 8.6 g; A/G [2]: 1.4; ALP [2]: 1008.6 IU/L; ALT [2]: 63 IU/L; AST [2]: 134.2 IU/L; BUN [2]: 29.2 mg/dL; CRE [2]: 0.1 mg/dL; Ca [2]: 7.2 mg/dL; Cl [2]: 104.2 meq/L; DBIL [2]: 0.006 mg/dL; GLC [2]: 139.6 mg/dL; IP [2]: 11.6 mg/dL; K [2]: 4.2 meq/L; LDH [2]: 232.2 IU/L; Na [2]: 138.2 meq/L; PL [2]: 62.8 mg/dL; RALB [2]: 2.8 g/dL; TBIL [2]: 0.014 mg/dL; TC [2]: 39.6 mg/dL; TG [2]: 66.4 mg/dL; TP [2]: 4.9 g/dL; gamma-GTP [2]: 1.8 IU/L; TERMINAL_BW [3]: 215.9 g; APTT [3]: 27.9 s; Bas [3]: 0%; Eos [3]: 0.6%; Fbg [3]: 255.2 mg/dL; Hb [3]: 13.6 g/dL; Ht [3]: 41%; Lym [3]: 56.4%; MCH [3]: 21.1 pg; MCHC [3]: 33.1%; MCV [3]: 63.7 fL; Mono [3]: 1.2%; Neu [3]: 41.8%; PT [3]: 22.1 s; Plat [3]: 117.3 x10_4/uL; RBC [3]: 643 x10_4/ul; Ret [3]: 7.8%; WBC [3]: 199.4 x10_2/uL; KIDNEY_L [3]: 1 g; KIDNEY_R [3]: 1 g; KIDNEY_TOTAL [3]: 1.9 g; LIVER [3]: 8.6 g; A/G [3]: 1.5; ALP [3]: 1011.2 IU/L; ALT [3]: 51.4 IU/L; AST [3]: 111 IU/L; BUN [3]: 20.8 mg/dL; CRE [3]: 0.1 mg/dL; Ca [3]: 8 mg/dL; Cl [3]: 105.6 meq/L; DBIL [3]: 0.012 mg/dL; GLC [3]: 151.6 mg/dL; IP [3]: 8.9 mg/dL; K [3]: 3.8 meq/L; LDH [3]: 189.4 IU/L; Na [3]: 139.4 meq/L; PL [3]: 75.8 mg/dL; RALB [3]: 2.8 g/dL; TBIL [3]: 0.012 mg/dL; TC [3]: 47.2 mg/dL; TG [3]: 70.2 mg/dL; TP [3]: 4.9 g/dL; gamma-GTP [3]: 1 IU/L; TERMINAL_BW [4]: 220.9 g; APTT [4]: 30.4 s; Bas [4]: 0%; Eos [4]: 0%; Fbg [4]: 293.6 mg/dL; Hb [4]: 13.2 g/dL; Ht [4]: 39.9%; Lym [4]: 66.4%; MCH [4]: 20.3 pg; MCHC [4]: 33%; MCV [4]: 61.6 fL; Mono [4]: 1.4%; Neu [4]: 30.8%; PT [4]: 18.9 s; Plat [4]: 112.9 x10_4/uL; RBC [4]: 647.6 x10_4/ul; Ret [4]: 5.3%; WBC [4]: 276.2 x10_2/uL; KIDNEY_L [4]: 1 g; KIDNEY_R [4]: 1 g; KIDNEY_TOTAL [4]: 2 g; LIVER [4]: 9.6 g; A/G [4]: 1.3; ALP [4]: 739.4 IU/L; ALT [4]: 25.2 IU/L; AST [4]: 65.8 IU/L; BUN [4]: 11 mg/dL; CRE [4]: 0.2 mg/dL
